For 70 molecules, AC50 results are on record in PubChem BioAssay AID493240 (Broad Institute, 2011).

In the test the test system is SK-MEL-5 viability, ATP luminescence (CellTiter-Glo), 24 h. The test is described as follows: cytotoxicity in parental SK-MEL-5 melanoma cells – cell-based, CellTiter-Glo, cherry-picked, set 3, orthogonal assay for MITF inhibitor project, dose response (AID 493240). On the technique in general: ATP-based viability assays read luminescence as a measure of living cells.
A word on the AC50: it is the midpoint of the concentration-response curve, whichever way the signal moves. As for `CCCC(=O)N1CCN(c2ccc(NC(=O)c3ccc([N+](=O)[O-])o3)cc2)CC1`, the AC50 is 24.2 µM.

Regarding `CC1CCN(CC(CS(=O)(=O)c2ccc([N+](=O)[O-])cc2)N2CCC(C)CC2)CC1` (stereo not given), the AC50 was 27.3 µM.

With `CN(C)CCCN(C(=O)CCc1ccccc1)c1nc2ccc(Br)cc2s1`, the AC50 is 16.5 µM.

In the case of `Nc1c(N(CCC2=CCCCC2)C(=O)COc2ccc([N+](=O)[O-])cc2)c(=O)[nH]c(=O)n1Cc1ccccc1`, the AC50 was 33.7 µM.

`O=C(Cn1ncc(Cl)c(Cl)c1=O)N1CCc2ccccc21`: the AC50 is 22.6 µM.

For the molecule `CC(=O)Nc1ccc(S(=O)(=O)NC2=C(N3CCN(C)CC3)C(=O)c3ccccc3C2=O)cc1`, the AC50 was 22.8 µM.

With `Cc1ccc2nc(N(CCCN(C)C)C(=O)c3ccc4c(c3)CCCC4)sc2c1`, the AC50 is 17.7 µM.

As for `COc1ccc(CNCCC(c2ccc(F)cc2)c2ccc(OC)cc2)cc1` (stereo not given), the AC50 was 16.6 µM.

`Cc1[nH]c2ccccc2c1C(=O)CCl`: the AC50 is 22.1 µM.

Consider `Nc1nc2ccccc2n1/N=C/c1ccc([N+](=O)[O-])s1`, for which the AC50 was 25.8 µM.

For the molecule `COc1ccc(Br)cc1/C=C/C(=O)c1ccc(NC(C)=O)cc1`, the AC50 is 26.7 µM.

Take `O=C(Nc1ccccn1)c1ccc(Br)s1`: the AC50 is 2.08 µM.

`CS(=O)(=O)c1ccc(C(=O)OCC(=O)NCc2cccs2)cc1[N+](=O)[O-]`: the AC50 was 29.7 µM.

Consider `COc1ccccc1NC(=O)c1nc(S(=O)(=O)Cc2ccccc2)ncc1Cl`, for which the AC50 was 29.4 µM.

On to `O=C1C=C(N(CCO)Cc2ccccc2)c2ccccc2C1=O`, for which the AC50 is 13.3 µM.

For `O=C(C#Cc1ccccc1)c1cccc([N+](=O)[O-])c1`, the AC50 is 26.2 µM.

Turning to `CCOC(=O)c1ccc(NC2=CC(=O)C(=O)c3ccccc32)cc1`, the AC50 is 14.3 µM.

On to `Cc1ccccc1NC(=O)Cc1nc(COC(=O)c2ccc(S(C)(=O)=O)c([N+](=O)[O-])c2)cs1`, for which the AC50 was 27.3 µM.

As to `O=C(CNc1cccc2ccccc12)N/N=C/c1ccc([N+](=O)[O-])o1`, the AC50 was 19.9 µM.

For `CCC(=O)N1CCN(c2ccc(NC(=O)c3ccc([N+](=O)[O-])o3)cc2Cl)CC1`, the AC50 is 24.8 µM.

Regarding `CCOC(=O)c1c(C)oc2c(F)c(F)c(F)c(F)c2c1=O`, the AC50 is 22.7 µM.

As for `CCN1/C(=C/c2cc[n+](C)cc2)C=Cc2cc(C)ccc21`, the AC50 was 25.7 µM.

For `CCC(C)(C)c1ccc(OCCCC[n+]2ccccc2)c(C(C)(C)CC)c1`, the AC50 was 15.3 µM.

`CN(C)CCCNC(=O)/C(=C\c1ccc(-c2ccc(Br)cc2)o1)NC(=O)c1ccccc1`: the AC50 is 16.7 µM.

Regarding `COc1ccc(S(=O)(=O)Nc2ccc(O)c3ccccc23)cc1`, the AC50 was 14.7 µM.

`Cc1ccc(C(O)(c2ccc(C)c(C)c2)C2CN3CCC2CC3)cc1C` (stereo not given): the AC50 was 17.1 µM.

Take `O=c1c(Cl)c2oc3ccccc3nc-2c2ccccc12`: the AC50 is 5.67 µM.

As to `CCOC(=O)c1ccc(NC(=O)c2ccc(C)c(S(=O)(=O)N3CCOCC3)c2)cc1`, the AC50 is 17.5 µM.

Take `CCN(CC)CCNC(=O)c1c(C)n(-c2ccccc2)c2cc(Br)c(OC)cc12`: the AC50 was 19.8 µM.

With `CCN1CCCC1CNC(=O)c1ccc2c(c1)NC(=O)/C(=C\c1ccc(C)cc1)S2` (stereo not given), the AC50 was 18.7 µM.

For `COc1cccc(/C=N/Nc2ccc(C(=O)O)cc2)c1O`, the AC50 is 19.9 µM.

Consider `Nc1c(N(CCC2=CCCCC2)C(=O)COc2ccc(F)cc2)c(=O)[nH]c(=O)n1Cc1ccccc1`, for which the AC50 was 10.9 µM.

As to `CCc1ccc(NC2=CC(=O)C(=O)c3ccccc32)cc1`, the half-maximal activity concentration (AC50) is 5.85 µM.

As for `O=C1C(Nc2ccccc2)=C(N2CCCCC2)C(=O)c2ccccc21`, the AC50 is 12.7 µM.

Take `Cn1nnnc1Sc1ncnc2scc(-c3ccc(C#N)cc3)c12`: the AC50 was 18.7 µM.

As for `CN(C)CCCNc1nc2sc3c(c2c(=O)n1CCc1ccccc1)CCCCC3`, the AC50 was 19.8 µM.

As to `CC1CC2(C)Oc3ccccc3CC2C(C)C1CNCCCN(C)C` (stereo not given), the AC50 is 16.2 µM.

As for `CCCCC[n+]1ccn(C2=C([O-])c3ccccc3C(=O)/C2=N\S(=O)(=O)c2ccccc2)c1`, the AC50 is 15.5 µM.

For `Cc1ccc(-c2nnc(SCC(=O)Nc3ccccc3F)o2)cc1`, the AC50 is 21.7 µM.

In the case of `COc1ccc2[nH]cc(C(=O)CCl)c2c1`, the AC50 is 17.4 µM.

As for `CCN(CC)CCNC(=O)c1ccc(NC(=O)c2cccc(S(=O)(=O)N3c4ccccc4CC3C)c2)cc1` (stereo not given), the AC50 was 22.5 µM.

Regarding `O=C(/C=C/Nc1ccccc1Br)c1ccccn1`, the AC50 is 21.9 µM.

Consider `CCN(Cc1ccccc1)c1ccc(/C=N/N=C(N)N)cc1`, for which the AC50 is 17.9 µM.

As for `CCCCn1c(=N)n(CCOc2ccc(C)cc2)c2ccccc21`, the AC50 is 17.6 µM.

In the case of `CC1CCC(C(C)C)C(OC(=O)C[n+]2cc(-c3ccc(Cl)cc3)n3c2CCCCC3)C1` (stereo not given), the AC50 is 17.2 µM.

On to `CCN(CC)CCNC(=O)C1CCN(S(=O)(=O)c2c(C)noc2/C=C/c2ccccc2F)CC1`, for which the AC50 was 28.8 µM.

As for `Cc1cc(C)c2sc(N(CCCN(C)C)C(=O)COc3ccc(Cl)cc3)nc2c1`, the AC50 is 24.7 µM.

Turning to `CCSCCc1nnc(NC(=O)Nc2cccc(C(F)(F)F)c2)s1`, the AC50 is 16.6 µM.

On to `CCNC1=C(Cl)C(=O)c2ccccc2C1=O`, for which the AC50 was 9.44 µM.

For the molecule `Cc1ccc(-c2c[n+](Cc3ccc(Cl)c(Cl)c3)c3n2CCC3)cc1`, the AC50 was 15.3 µM.

Consider `COCCCn1[nH]c2c3c(ccc2c1=O)C(=O)c1ccccc1C3=O`, for which the AC50 is 16.5 µM.

For the molecule `COc1ccc(C(=O)/C=C/C(=O)N(CC(=O)NC2CCCCC2)Cc2ccc(F)cc2)c(O)c1`, the AC50 was 12.8 µM.

In the case of `O=C(COc1ccc(Cl)cc1Cl)Nc1ccccn1`, the AC50 is 19.6 µM.

For the molecule `CCN(CC)CCNC(=O)c1ccc(NC(=O)c2cn(-c3ccccc3)nc2-c2cccs2)cc1`, the AC50 was 19.9 µM.

`CN(C)S(=O)(=O)c1ccc(-c2csc(N/N=C/c3ccc(O)cc3)n2)cc1`: the AC50 was 17.5 µM.

As for `COc1ccc(C(CCNC(C)c2ccccc2)c2ccc(F)cc2)cc1` (stereo not given), the AC50 was 17.6 µM.

Regarding `Cc1cc(C)cc(NC(=O)c2ccc([N+](=O)[O-])o2)c1`, the half-maximal activity concentration (AC50) was 27.7 µM.

For the molecule `COc1ccc(CCn2c(=S)[nH]c3cc(C(=O)NCc4ccco4)ccc3c2=O)cc1OC`, the AC50 was 22.8 µM.

As to `Cc1cc(C)cc(NS(=O)(=O)c2ccc3c(c2)c(=O)n(C)c(=O)n3C)c1`, the AC50 is 25.5 µM.

As to `COc1cc(/C=C/C(=O)c2ccc3c(c2)OCCO3)cc(Br)c1OCC(=O)N(C)C`, the AC50 is 18 µM.

With `O=C(/C=C/c1ccc(Cl)c([N+](=O)[O-])c1)c1ccc(O)cc1`, the AC50 was 27.3 µM.

As to `CCCCN(C)CC(O)Cn1cc(/C=C/C(=O)c2cccs2)c2ccccc21` (stereo not given), the AC50 was 18.8 µM.

On to `Cc1nc2ccccc2n1/N=C/c1ccc([N+](=O)[O-])s1`, for which the AC50 was 7.45 µM.

`COc1cccc2sc(N(CCCN(C)C)C(=O)C(c3ccccc3)c3ccccc3)nc12`: the AC50 was 18.3 µM.

For `O=C(O)/C=C/C(=O)c1ccc2c(c1)CCc1ccccc1-2`, the AC50 is 30.5 µM.

As to `CCN1CCN(c2ccc(Nc3ccnc4ccccc34)cc2)CC1`, the AC50 was 23.8 µM.

On to `O=C(CCl)Nc1ccc(-c2ccccc2)cc1`, for which the AC50 is 21.9 µM.

For `CC1CCC(C(C)C)C(OC(=O)Cn2c(-c3ccccc3)[n+](C)c3ccccc32)C1` (stereo not given), the AC50 was 5.45 µM.

In the case of `O=C(CCl)Nc1ccc(Sc2ccc(NC(=O)CCl)cc2)cc1`, the AC50 is 23.6 µM.

Regarding `O=[N+]([O-])c1ccc(/C=N/n2cnc3ccccc32)s1`, the AC50 was 17.9 µM.
